Experimental findings from PMC9767854, “Discovery and mechanism studies of a novel ATG4B inhibitor Ebselen by drug repurposing and its anti-colorectal cancer effects in mice” (Cell & Bioscience, 2022) are described below.

For assay [1], the target named is T1, ATG4B (cell lysates from ATG4B-Flag 293 T) (Homo sapiens, UniProt Q9Y4P1).
T1 construct: expressed in transfected cells; host or cells: 293T (ATG4B-Flag 293 T line)
The experiment in a line: In vitro cleavage assay of LC3B-GST with ATG4B-overexpressing cell lysates. It is filed as biochemical. To be noted: compounds 10 μM, 30 min at 37 °C.
Description: A, B Cell lysates (1.5 μg) from ATG4B-Flag 293 T were incubated with different compounds (10 μM) for 30 min at 37 °C, then recombinant LC3B-GST (3 μg) were added up to 20 μl and inhibitions were detected by SDS-PAGE and CBB staining (A). B Statistical chart of gel results of three repeated experiments. Ebselen was abbreviated as Ebs, the same below. CON as control without lysate, NC as negative control without compound.

Assay [2] addresses T2, ATG4B (Homo sapiens, UniProt Q9Y4P1).
T2 construct: 6xHis; made in house; host or cells: E. coli BL21(DE3)
T2 sequence (Q9Y4P1 1-393): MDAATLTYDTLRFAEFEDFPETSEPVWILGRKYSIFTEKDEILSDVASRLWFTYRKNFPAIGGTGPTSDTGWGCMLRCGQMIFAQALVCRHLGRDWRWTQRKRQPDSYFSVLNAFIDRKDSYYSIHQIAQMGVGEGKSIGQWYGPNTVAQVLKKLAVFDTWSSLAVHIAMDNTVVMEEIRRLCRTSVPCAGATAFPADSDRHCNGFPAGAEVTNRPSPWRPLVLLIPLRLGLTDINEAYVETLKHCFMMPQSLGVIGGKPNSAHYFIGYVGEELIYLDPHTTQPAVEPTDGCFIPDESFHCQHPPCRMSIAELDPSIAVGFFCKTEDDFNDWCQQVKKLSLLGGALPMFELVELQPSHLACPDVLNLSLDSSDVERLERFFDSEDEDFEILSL
The experiment in a line: In vitro thermal shift assay, ATG4B WT. The note with it: ATG4B 100 nM, Ebselen 1 μM, compared with DMSO. The class given is binding. The protocol:
For in vitro thermal shift assay, recombinant protein ATG4B or C74S mutant (100 nM) was incubated with Ebselen (1 μM) (DMSO as control) in the PCR tubes. The PCR instrument program was set at 25 °C for 10 min, 37 °C to 70 °C for 30 min and followed by cooling tubes for 5 min at room temperature. Then centrifuged at 12,000 rpm for 10 min at 4 °C, soluble fractions were separated from precipitates to be analyzed by SDS-PAGE and immunoblotting.

For assay [3], the system named is HCT116. The experiment in a line: Autophagy flux by LC3B-II western blot in HCT116. To be noted: Ebselen 5 and 10 μM with CQ 40 μM. The class given is cell-based. The protocol: (§1) Fig. 5 Ebselen suppresses autophagy flux via inhibition of ATG4B. A, B HeLa cells were treated with Torin 1 (2 μM) or CQ (40 μM) and detected by western blot. C, D SW620 cells were transduced with sgCon and sgATG4B lentiviruses, respectively. Then cells were treated with CQ (40 μM) and detected by western blot. E, F HCT116 were treated with Ebselen (5 and 10 μM) or CQ (40 μM) and subjected to western blot. G, H SW620 were treated with Ebselen (10 μM) or CQ (40 μM) and western blotting was carried out to detect the protein levels. I, J Immunofluorescence analysis of endogenous LC3B in HCT116 treated with Ebselen (10 μM) or CQ (40 μM). Dots numbers for LC3B were derived from counting at least 20 cells and 5 fields from three independent replicated experiments. Bar = 10 μm. K HCT116 cells were treated with 2 μM Torin 1 in the presence or absence of 10 μM Ebselen for 12 h, then the level ratio of long-lived proteins was measured by flow cytometry
Immunoblotting assay was performed reportedly previously. Commonly, cells were lysed in ice-cold RIPA lysis buffer (Beyotime, P0013B) supplemented with Pierce™ protease inhibitor tablet (ThermoFisher Scientific, A32965). […]
For orientation: Immunoblotting shows a protein as a band on a membrane.

Assay [4] deals with HCT116. The experiment in a line: Immunofluorescence of endogenous LC3B dots. The class given is cell-based. To be noted: Ebselen 10 μM, CQ 40 μM. The protocol:
as §1
Immunofluorescence staining was carried out as described before. Respectively, cells seeded on glass-bottom 35-mm dishes (SORFA bio, 201,200) were washed with PBS and fixed for 20 min at room temperature with 4% paraformaldehyde after related administration. Subsequently, dishes were permeabilized with 0.3% Triton X-100 in PBS, and washed to be blocked in goat serum (Boster, AR1009) for 1 h before incubated with primary antibody overnight at 4℃. […]

Turning to `O=c1c2ccccc2[se]n1-c1ccccc1` [Ebselen], the “cleavage activity of ATG4B on LC3B-GST in cell lysates” value in assay [1] was “strongly suppressed”. Also, in assay [2], the “thermal stability of wild type ATG4B” value was “strikingly improved”. In addition, the “autophagic flux (LC3B-II)” value in assay [3] is on record as “inhibition of autophagic flux”. Also, in assay [4], the “number of endogenous LC3B dots” value was “decreased”.
